Laboratory results as given in ChEMBL document CHEMBL1201862, “PubChem BioAssay data set” (2004).
Calls of active or inactive are those of the source.

What was measured:
[1] = tested on: Streptococcus sp. 'group A'; assay: growth inhibition of control SK(-) GAS strain, dose response, counter-screen for streptokinase expression inhibitor project, luminescence, kanamycin, BacTiterGlo, confirmation (AID 1900); type: functional, organism-based
SUMO-activating enzyme [2] = molecular target: T1, SUMO-activating enzyme (Homo sapiens, UniProt Q9UBT2); assay: SUMOylation inhibitor hit validation, confirmation, SUMOylation inhibitor project, biochemical, AlphaScreen (AID 2018); type: functional
Streptokinase A = molecular target: T2, Streptokinase A (Streptococcus pyogenes serotype M1, UniProt P10520); assay: S. pyogenes streptokinase expression inhibitors, potency, dose response, plasminogen activation absorbance, OD405 (AID 1914); type: functional, Streptococcus pyogenes M1 GAS;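 note: secreted streptokinase activity via plasminogen activation per viability signal from cell pellet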
T2 sequence (P10520 whole entry): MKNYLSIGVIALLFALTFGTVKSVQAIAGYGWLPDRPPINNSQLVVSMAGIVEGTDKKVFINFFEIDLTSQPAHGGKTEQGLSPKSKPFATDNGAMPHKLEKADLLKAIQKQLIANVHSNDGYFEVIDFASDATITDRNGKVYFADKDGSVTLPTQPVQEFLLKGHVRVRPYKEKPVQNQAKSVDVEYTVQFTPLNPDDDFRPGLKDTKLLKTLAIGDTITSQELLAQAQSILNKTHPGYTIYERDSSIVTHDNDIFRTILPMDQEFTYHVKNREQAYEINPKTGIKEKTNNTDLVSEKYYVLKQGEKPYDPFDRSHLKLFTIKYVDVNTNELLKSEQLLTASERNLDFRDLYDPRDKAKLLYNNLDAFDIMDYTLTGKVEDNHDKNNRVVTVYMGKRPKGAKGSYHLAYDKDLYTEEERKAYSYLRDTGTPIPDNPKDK

SUMO-activating enzyme [3] = molecular target: T1, SUMO-activating enzyme; assay: inhibitors of in vitro SUMOylation cascade, primary screen, biochemical, HTRF, uHTS (AID 2006); type: protein-complex assay
[4] = growth suppression of PTEN-null colon cells, dose response, cell-based, HCT116 PTEN knockout (AID 1047); type: functional;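 note: HCT116 colon tumor cells with PTEN knocked out; cells exposed to compound for 60 hours before readout; potency for loss of cell viability measured by luminescence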
[5] = growth suppression of beta-catenin-knockout colon cells, dose response, cell-based, HCT116, human colon tumor (AID 1045); type: functional;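 note: HCT116 colon tumor cells with beta catenin knocked out; cells exposed to compound for 60 hours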
Streptococcus = assay: Group A Streptococcus viability loss, dose response, counter-screen for streptokinase expression inhibitor project, luminescence, BacTiterGlo (AID 1915); type: functional, organism-based;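 note: potency for reduction of bacterial viability or growth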
[6] = molecular target: T3, Carboxy-terminal domain RNA polymerase II polypeptide A small phosphatase 1 (Homo sapiens, UniProt Q9GZU7); assay: inhibitors of CTDSP1, concentration-response testing, biochemical assay, absorbance-based, actives from ultra-high-throughput screening (AID 540297); type: functional
T3 sequence (Q9GZU7 whole entry): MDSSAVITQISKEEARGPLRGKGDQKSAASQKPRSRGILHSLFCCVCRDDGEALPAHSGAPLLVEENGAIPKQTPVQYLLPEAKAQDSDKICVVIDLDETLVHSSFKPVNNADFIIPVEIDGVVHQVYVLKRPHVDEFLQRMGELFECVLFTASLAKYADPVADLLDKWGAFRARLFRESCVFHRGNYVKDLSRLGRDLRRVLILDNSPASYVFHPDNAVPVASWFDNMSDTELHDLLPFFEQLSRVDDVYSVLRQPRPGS

Hexokinase HKDC1 = molecular target: T4, Hexokinase HKDC1 (Homo sapiens, UniProt Q2TB90); assay: HKDC1 hexokinase activators, dose response, biochemical, W721R variant (AID 504730); type: functional
T4 sequence (Q2TB90 whole entry): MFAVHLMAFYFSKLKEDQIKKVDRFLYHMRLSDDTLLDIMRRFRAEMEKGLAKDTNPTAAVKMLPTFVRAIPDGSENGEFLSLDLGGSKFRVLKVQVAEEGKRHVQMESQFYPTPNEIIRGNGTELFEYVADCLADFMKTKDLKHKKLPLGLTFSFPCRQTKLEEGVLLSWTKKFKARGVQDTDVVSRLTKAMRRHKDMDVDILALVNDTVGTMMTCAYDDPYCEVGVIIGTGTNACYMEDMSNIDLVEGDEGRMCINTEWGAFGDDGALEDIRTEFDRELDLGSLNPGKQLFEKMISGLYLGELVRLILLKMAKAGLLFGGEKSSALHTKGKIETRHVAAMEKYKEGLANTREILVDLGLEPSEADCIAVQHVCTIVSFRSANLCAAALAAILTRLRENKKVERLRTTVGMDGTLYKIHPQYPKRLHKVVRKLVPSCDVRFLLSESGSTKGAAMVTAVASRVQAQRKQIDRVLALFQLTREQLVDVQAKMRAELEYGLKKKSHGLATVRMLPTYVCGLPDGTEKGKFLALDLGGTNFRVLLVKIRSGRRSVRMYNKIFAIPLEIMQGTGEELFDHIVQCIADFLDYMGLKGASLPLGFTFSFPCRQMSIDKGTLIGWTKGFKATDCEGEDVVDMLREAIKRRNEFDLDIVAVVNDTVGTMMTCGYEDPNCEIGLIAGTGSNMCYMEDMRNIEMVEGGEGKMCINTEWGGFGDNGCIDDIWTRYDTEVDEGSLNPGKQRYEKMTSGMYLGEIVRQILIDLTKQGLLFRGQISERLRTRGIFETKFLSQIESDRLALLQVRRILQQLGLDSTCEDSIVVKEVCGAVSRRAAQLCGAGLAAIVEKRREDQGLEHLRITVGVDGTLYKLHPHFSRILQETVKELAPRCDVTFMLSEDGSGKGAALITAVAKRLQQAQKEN

Hexokinase-1 = Hexokinase-1 (Homo sapiens, UniProt P19367); assay: hexokinase 1 activators, dose response, selectivity assay for HKDC1 activator project, biochemical (AID 504762); type: functional
[7] = molecular target: T5, G-protein coupled receptor 55 (Homo sapiens, UniProt Q9Y2T6); assay: GPR55 antagonists blocking LPI-driven arrestin recruitment, primary screen, imaging, U2OS, beta-arrestin-GFP, LPI agonist (AID 2013); type: functional;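 note: antagonist potency measured as reduced agonist-driven arrestin aggregation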
Cannabinoid receptor 1 [8] = molecular target: T6, Cannabinoid receptor 1 (Homo sapiens, UniProt P21554); assay: SAR analysis of antagonists of the Cannabinoid Receptor 1 using an Image-Based Assay - Set 2. [Related pubchem assays (depositor defined):AID2013, AID2026]; type: functional
[9] = molecular target: T7, G-protein coupled receptor 35 (Homo sapiens, UniProt Q9HC97); assay: SAR analysis of Agonists of the GPR35 Receptor using an Image-Based Assay - Set 2. [Related pubchem assays (depositor defined):AID2013, AID2026]; type: functional
Cannabinoid receptor 2 [10] = molecular target: T8, Cannabinoid receptor 2 (Homo sapiens, UniProt P34972); assay: SAR analysis of antagonists of the Cannabinoid Receptor 2 using an Image-Based Assay. [Related pubchem assays (depositor defined):AID2013, AID2026]; type: functional
Cannabinoid receptor 1 [11] = molecular target: T6, Cannabinoid receptor 1; assay: SAR analysis of agonists of the Cannabinoid Receptor 1 using an Image-Based Assay - Set 2. [Related pubchem assays (depositor defined):AID2013, AID2026]; type: functional
[12] = molecular target: T7, G-protein coupled receptor 35; assay: SAR analysis of Antagonists of the GPR35 Receptor using an Image-Based Assay - Set 3. [Related pubchem assays (depositor defined):AID2013, AID2026]; type: functional
[13] = molecular target: T5, G-protein coupled receptor 55; assay: GPR55 antagonist potency of analogs, SAR follow-up, imaging, U2OS, beta-arrestin-GFP, LPI agonist, set 2 (AID 2820); type: functional
Cannabinoid receptor 2 [14] = molecular target: T8, Cannabinoid receptor 2; assay: SAR analysis of agonists of the Cannabinoid Receptor 2 using an Image-Based Assay. [Related pubchem assays (depositor defined):AID2013, AID2026]; type: functional
[15] = molecular target: T9, Dual specificity protein phosphatase 3 (Homo sapiens, UniProt P51452); assay: VHR1 phosphatase inhibitors, primary screen, biochemical, absorbance, uHTS (AID 1654)
[16] = molecular target: T9, Dual specificity protein phosphatase 3; assay: VHR1 phosphatase inhibitors, biochemical (AID 1878)
[17] = molecular target: T10, Dual specificity protein phosphatase 6 (Rattus norvegicus, UniProt Q64346); assay: MKP-3 phosphatase inhibitors, primary screen, biochemical, rat enzyme, in vitro (AID 425)
T10 sequence (Q64346 whole entry): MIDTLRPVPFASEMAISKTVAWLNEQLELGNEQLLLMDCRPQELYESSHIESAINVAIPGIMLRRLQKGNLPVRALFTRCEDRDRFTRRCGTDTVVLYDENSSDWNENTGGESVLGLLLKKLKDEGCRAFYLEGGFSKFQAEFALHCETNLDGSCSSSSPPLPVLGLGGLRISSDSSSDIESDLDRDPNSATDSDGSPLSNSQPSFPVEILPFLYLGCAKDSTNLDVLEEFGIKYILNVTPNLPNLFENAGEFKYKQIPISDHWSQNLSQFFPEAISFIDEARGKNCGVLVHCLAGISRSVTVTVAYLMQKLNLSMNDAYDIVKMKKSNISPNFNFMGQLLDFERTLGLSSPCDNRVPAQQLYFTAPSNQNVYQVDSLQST

T8 sequence (P34972 whole entry): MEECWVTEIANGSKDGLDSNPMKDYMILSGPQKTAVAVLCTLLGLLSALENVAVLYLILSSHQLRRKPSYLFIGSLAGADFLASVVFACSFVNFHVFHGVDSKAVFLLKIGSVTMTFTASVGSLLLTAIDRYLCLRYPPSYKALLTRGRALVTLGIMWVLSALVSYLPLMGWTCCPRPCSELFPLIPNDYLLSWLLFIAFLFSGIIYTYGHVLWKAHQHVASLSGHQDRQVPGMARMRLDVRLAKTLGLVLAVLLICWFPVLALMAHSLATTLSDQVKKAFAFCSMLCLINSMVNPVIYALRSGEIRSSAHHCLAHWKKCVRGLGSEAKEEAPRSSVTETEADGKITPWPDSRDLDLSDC
T7 sequence (Q9HC97 whole entry): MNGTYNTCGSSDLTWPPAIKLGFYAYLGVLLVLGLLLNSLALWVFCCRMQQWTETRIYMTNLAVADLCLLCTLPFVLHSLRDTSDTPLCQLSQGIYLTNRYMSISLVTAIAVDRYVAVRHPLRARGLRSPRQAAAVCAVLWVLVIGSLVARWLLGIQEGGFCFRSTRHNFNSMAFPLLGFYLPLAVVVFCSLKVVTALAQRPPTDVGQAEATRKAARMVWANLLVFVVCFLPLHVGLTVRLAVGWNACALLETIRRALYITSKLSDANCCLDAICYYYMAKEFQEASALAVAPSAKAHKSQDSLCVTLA
T5 sequence (Q9Y2T6 whole entry): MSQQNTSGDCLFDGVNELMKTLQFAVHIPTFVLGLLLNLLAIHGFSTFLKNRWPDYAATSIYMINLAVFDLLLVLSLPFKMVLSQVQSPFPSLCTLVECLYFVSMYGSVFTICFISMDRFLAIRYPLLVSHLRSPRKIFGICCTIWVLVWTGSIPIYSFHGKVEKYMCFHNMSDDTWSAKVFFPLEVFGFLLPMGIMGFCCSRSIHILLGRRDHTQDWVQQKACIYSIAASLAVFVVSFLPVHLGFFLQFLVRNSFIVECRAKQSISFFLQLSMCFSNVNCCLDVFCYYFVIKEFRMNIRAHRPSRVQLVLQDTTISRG
T9 sequence (P51452 whole entry): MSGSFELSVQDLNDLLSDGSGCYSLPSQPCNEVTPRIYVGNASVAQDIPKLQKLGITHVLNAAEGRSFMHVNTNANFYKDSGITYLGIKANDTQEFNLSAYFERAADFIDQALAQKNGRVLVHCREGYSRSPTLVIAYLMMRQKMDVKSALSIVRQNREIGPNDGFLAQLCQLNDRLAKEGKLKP
T6 sequence (P21554 whole entry): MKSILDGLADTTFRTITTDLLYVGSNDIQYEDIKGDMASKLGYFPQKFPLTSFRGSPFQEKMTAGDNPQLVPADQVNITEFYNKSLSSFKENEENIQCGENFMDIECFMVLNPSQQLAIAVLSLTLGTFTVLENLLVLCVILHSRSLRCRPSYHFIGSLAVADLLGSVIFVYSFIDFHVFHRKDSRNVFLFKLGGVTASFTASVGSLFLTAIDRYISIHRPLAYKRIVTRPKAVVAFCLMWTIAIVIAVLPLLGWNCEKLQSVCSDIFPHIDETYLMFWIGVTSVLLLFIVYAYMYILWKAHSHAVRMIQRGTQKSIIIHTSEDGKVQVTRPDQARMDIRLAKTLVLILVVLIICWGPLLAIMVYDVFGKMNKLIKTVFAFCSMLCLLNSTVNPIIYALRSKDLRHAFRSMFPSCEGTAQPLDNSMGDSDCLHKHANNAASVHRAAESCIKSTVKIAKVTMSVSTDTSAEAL
T1 sequence (Q9UBE0 whole entry): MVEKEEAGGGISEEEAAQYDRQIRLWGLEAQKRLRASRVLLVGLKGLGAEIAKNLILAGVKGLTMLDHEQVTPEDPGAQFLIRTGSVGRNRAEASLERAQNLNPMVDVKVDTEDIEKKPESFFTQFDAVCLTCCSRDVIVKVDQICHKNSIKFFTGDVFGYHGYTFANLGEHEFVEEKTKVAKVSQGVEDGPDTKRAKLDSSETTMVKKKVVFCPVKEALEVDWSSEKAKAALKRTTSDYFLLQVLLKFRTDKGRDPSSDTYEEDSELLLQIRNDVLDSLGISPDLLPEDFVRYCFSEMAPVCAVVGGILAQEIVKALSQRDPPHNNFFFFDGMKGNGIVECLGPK
T1 sequence (Q9UBT2 whole entry): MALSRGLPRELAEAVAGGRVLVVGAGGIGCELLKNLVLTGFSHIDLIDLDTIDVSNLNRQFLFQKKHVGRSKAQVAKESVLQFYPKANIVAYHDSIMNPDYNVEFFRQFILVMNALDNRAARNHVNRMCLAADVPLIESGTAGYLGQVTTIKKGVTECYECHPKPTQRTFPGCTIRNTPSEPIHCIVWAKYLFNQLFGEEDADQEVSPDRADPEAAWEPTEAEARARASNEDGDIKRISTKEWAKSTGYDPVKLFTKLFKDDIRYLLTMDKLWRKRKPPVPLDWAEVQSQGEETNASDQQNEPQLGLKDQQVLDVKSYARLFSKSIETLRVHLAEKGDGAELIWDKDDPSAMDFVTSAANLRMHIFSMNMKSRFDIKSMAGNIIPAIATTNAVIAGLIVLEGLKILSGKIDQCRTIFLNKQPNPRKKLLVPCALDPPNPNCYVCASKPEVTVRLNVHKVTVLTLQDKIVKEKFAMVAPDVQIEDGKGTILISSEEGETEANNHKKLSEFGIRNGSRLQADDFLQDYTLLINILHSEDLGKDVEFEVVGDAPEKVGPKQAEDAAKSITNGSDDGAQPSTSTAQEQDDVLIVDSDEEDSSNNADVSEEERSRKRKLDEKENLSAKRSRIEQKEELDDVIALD
Hexokinase-1, sequence (P19367 whole entry): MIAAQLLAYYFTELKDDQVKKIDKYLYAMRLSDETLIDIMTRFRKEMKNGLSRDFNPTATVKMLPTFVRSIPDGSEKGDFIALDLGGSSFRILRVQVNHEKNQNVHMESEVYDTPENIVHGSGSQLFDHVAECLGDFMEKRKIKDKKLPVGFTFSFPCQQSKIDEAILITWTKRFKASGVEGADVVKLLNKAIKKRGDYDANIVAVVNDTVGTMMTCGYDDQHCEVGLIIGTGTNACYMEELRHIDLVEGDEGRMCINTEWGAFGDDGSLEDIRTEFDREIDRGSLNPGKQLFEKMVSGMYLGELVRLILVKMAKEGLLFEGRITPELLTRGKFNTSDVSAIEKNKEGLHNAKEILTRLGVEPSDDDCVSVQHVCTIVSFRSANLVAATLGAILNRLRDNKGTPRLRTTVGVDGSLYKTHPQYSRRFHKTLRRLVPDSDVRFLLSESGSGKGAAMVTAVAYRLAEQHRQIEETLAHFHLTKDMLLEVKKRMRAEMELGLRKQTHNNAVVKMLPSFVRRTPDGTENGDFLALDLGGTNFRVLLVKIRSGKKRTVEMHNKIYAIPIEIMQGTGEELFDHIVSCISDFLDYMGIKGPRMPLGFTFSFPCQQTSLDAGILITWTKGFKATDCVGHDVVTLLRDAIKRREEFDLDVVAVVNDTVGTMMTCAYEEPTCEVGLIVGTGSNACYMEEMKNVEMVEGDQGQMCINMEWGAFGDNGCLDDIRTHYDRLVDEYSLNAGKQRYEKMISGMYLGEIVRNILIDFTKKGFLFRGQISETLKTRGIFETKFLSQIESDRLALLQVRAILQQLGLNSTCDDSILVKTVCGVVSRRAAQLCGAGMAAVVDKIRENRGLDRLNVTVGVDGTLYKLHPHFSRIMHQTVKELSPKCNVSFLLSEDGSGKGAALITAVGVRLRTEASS

COc1ccccc1-n1cnc2c(c1=O)c1nc3ccccc3nc1n2-c1ccc(C)c(C)c1
active: EC50 [1] 11.2 µM | IC50 (SUMO-activating enzyme [2]) 5.24 µM | IC50 (SUMO-activating enzyme [3]) 15.4 µM | EC50 [4] 19.2 µM | EC50 [5] 20.2 µM | EC50 (Streptococcus) 59 µM | IC50 [6] 7.53 µM
> 150 µM (not active): EC50 (Streptokinase A)

Cn1c(-c2ccccc2)c(C(=O)CC#N)c2ccccc21
inactive: EC50 (Hexokinase HKDC1) 39.2 µM | EC50 (Hexokinase-1) 32 µM

Cc1cccn2c(=O)c3cc(C(=O)NC4CCCC4)c(=N)n(C4CCCC4)c3nc12
inactive: IC50 (Cannabinoid receptor 1 [8]) > 32 µM | EC50 [9] > 32 µM | IC50 (Cannabinoid receptor 2 [10]) > 32 µM | EC50 (Cannabinoid receptor 1 [11]) > 32 µM | IC50 [12] > 32 µM | EC50 (Cannabinoid receptor 2 [14]) > 32 µM
active: IC50 [7] 1.24 µM | IC50 [13] 0.965 µM

O=C(O)c1cc(-c2ccc(/C=c3\sc4nc5ccc(Br)cc5n4c3=O)o2)ccc1Cl
active: IC50 [15] 3.97 µM | IC50 [16] 1.42 µM | IC50 [17] 12 µM
